Key:
rat [1] = assay: Increase in rate of stomach emptying (M1 active); assay type: in vivo; details: PO
Source text: (§1) Thus, the receptor binding selectivity of (S)-3-ethyl-4-[(1-methyl-1H-imidazol-5-yl)methyl]-2-oxazolidinone translates into pharmacologic specificity in the whole animal with M1 actions (stomach emptying) predominating over M2 actions (enhanced intestinal motility). […] Additionally, as shown in Table I in the central nervous system the compound increases neocortical arousal as measured by quantitative electroencephalography at doses below those required to increase local cortical blood flow in rats.

rat [2] = assay: Increase in smooth muscle motility of the intestines (M2 active); assay type: in vivo; details: PO
Source text: as §1

[3] = Oral availability and duration of action; details: in vivo
Male Long-Evans rats = assay: Neocortical arousal by quantitative electroencephalography (QEEG); assay type: in vivo; details: rat, 10.0, 32.0 and 100.0 mg/kg tested
Source text: The methodology for determining neocortical arousal in rats by quantitative electroencephalography (QEEG) is as follows:
Male Long-Evans rats weighing 350 to 500 g were surgically implanted with stainless steel electrodes screwed into the skull surface overlying the frontal and occipital cortex. Electrodes were secured to a plastic connector (Plastic Products Model MS-363) which was permanently attached to the skull surface with dental acrylic. Animals were given one week to recover from surgery before testing.
After recovery from surgery, QEEG was measured Briefly, animals were placed into sound attenuating chambers during the light cycles of the rats diurnal cycle. Animals were allowed two hours to habituate to these environments. Thereafter, EEG was recorded continuously for ten minutes before and two hours after drug administration. Every other one-second sample of EEG was converted from the time to the frequency domain using a fast fourier transformation (FFT). […] Mean power within the 0 to 4 (delta), 5 to 8 (theta), 9 to 15 (alpha), 16 to 25 (beta) Hz bands was calculated separately for each bandwidth. Total power within all bandwidths also was calculated. […]
Data from each bandwidth and total power were analyzed separately using nonparametric ranked analysis of variance (Kruskals-Wallis rank transformed analysis with repeated measures). […]

awake unanesthetized rat = assay: Heart rate in the awake unanesthetized rat; assay type: in vivo; details: increase = M1 response, decrease = M2 response
Source text: as §1

[4] = tested on: M1 receptors / M2 receptors; assay: M1/M2 receptor binding: transformed cells possessing only M1 receptors and heart tissue (M2 receptors)
Source text: On the basis of molecular biology techniques, five subtypes of muscarinic receptors have been identified. For an agent useful in the treatment of cognitive decline in a patient, the relevant receptors are M1 since they are predominantly localized in brain areas associated with memory and learning (cortex and hippocampus). For comparison, M2 receptors are predominantly localized in peripheral tissues (e.g. the heart). […] The ratio of M1/M2 is shown in Table I. (S)-3-Ethyl-4-[(1-methyl-1H-imidazol-5-yl)methyl]-2-oxazolidinone is 3-fold selective for M1receptors over M2 receptors

[5] = tested on: central muscarinic antagonist and agonist binding sites, rat cerebral cortex tissue; assay: Receptor [3H]quinuclidinyl benzilate (RQNB) / [3H]cis-methyldioxalane (RCMD) binding, ratio of IC50 values; details: agonists ratio >=100, antagonists near 1, partial agonists between 1 and 100
Protocol: The biological activity of (S)-3-ethyl-4-[(1-methyl-1H-imidazol-5-yl)methyl]-2-oxazolidinone or a pharmaceutically acceptable salt thereof as an agent for the treatment of the symptoms of cognitive decline in an elderly patient including Alzheimer's disease was evaluated using a number of tests. The activity of the aforementioned compound or pharmaceutically acceptable salt thereof as a central muscarinic binding site agonist and antagonist was measured. Thus, in the Receptor [^3 H]Quinuclidinyl Benzilate Binding Assay (RQNB), described more fully by Watson, M., et al, Journal of Pharmacology and Experimental Therapeutics, 237, pages 411-418 (1986), rat cerebral cortex tissue is treated with radiolabeled quinuclidinyl benzilate, a known muscarinic binding site antagonist. The concentration of test compound required to inhibit 50% of the binding of this muscarinic antagonist is then determined. This procedure allows a determination of the affinity of the test compound for the central muscarinic antagonist site. […] The concentration of test compound required to inhibit 50% of the binding of this muscarinic agonist is then determined. […]

With `CCN1C(=O)OC[C@@H]1Cc1cncn1C` [(S)-3-ethyl-4-[(1-methyl-1H-imidazol-5-yl)methyl]-2-oxazolidinone] the ED50 (rat [1]) was 1.6 mg/kg, the ED50 (rat [2]) was 13.1 mg/kg and the duration of action [3] was “reasonable duration of action”. The oral availability ([3]; po) was “good oral availability”, the “ELECTROENCEPHALOGRAPHY (ACTIVE DOSE RANGE, mg/kg, PO)” value (Male Long-Evans rats) was 10-100 mg/kg and the “effect on heart rate” value (awake unanesthetized rat) was “increases (an M1 response) rather than decreases (an M2 response) heart rate”. For the same compound, the “selectivity for M1 receptors over M2 receptors” value ([4]; receptor binding) was 3 fold, the “M1/M2 (RECEPTOR BINDING)” value ([4]; transformed cells with only M1 receptors vs heart tissue (M2)) was 3.3 and the “RQNB/RCMD (ratio of IC50 values, muscarinic antagonist/agonist binding)” value [5] was 214.
